The values that follow come from US6077519A, “Methods for isolation and use of T cell epitopes eluted from viable cells in vaccines for treating cancer patients” (University of Pittsburgh, priority 1997, dated 2000).

Assay [1] deals with Mel 624. Description: induction of anti-melanoma CTL from melanoma patient PBMC by peptide-pulsed autologous DC, lysis of Mel 624. It is filed as cell-based, human. Conditions: for Patient PBL Response (responders/patients): lysis of Mel 624 >20% at E:T 10:1, >80% inhibited by BB7.2.
Description: Heparinized peripheral blood was obtained by venipuncture from 15 HLA-A2^+ normal donors and 10 HLA-A2^+ donors with AJCC Stage III or IV melanoma treated at the University of Pittsburgh Cancer Institute/University of Pittsburgh School of Medicine. Peripheral blood mononuclear cells ("PBMC") were obtained after density centrifugation on Ficoll-Hypaque gradients per the manufacturer's protocol (LSM, Organon-Teknika, Durham, N.C.). […] Non-adherent cells were frozen in liquid nitrogen in 90% fetal bovine serum/10% DMSO and were retained as T cell enriched responder populations. Plastic adherent cells were cultured for 5-7 days in AIM-V medium supplemented with 1000 U rIL-4/ml+1000 U rGM-CSF/ml at 37° C., 5% CO2 and served as the source of autologous dendritic cells. No medium was added or removed during this culture period. […] Gradient interface cells were harvested, washed with HBSS, and used in phenotypic and functional assays, as outlined below. Cells generated in this way were determined to be greater than 90% DC based on morphology and the expression of a CD1a+, CD1b+, CD1c+, CD3-, CD14-, CD16-, CD20-, CD40+, CD80+, CD83+, CD86+, MHC class II+phenotype assessed by flow cytometry.
(§1) Plastic non-adherent DC (1-2×10^6) were harvested from IL-4+GM-CSF cultures on days 7, 14, 21, and 28, and washed twice with HBSS. […] Peptide-pulsing (10 μM final peptide concentration) was allowed to proceed for 2 hours at 37° C., at which time, the cells were washed twice with HBSS, resuspended in 1 ml of AIM-V and irradiated (2500 rad) using a cesium source. Day 7 peptide-pulsed DC were used to "prime" freshly-thawed, autologous PBMC (plastic adherent depleted) responders at a 20:1 responder-to-stimulator ratio. Responding T cells were restimulated weekly (for 4 weeks) using irradiated, peptide-pulsed autologous DC at a 20:1 responder-to-restimulator ratio in AIM-V medium containing 60 IU/ml rhIL-2 (Chiron, Emeryville, Calif.).
(§2) Four hour chromium release assays were performed as described previously. Target cells were labeled with 100 μCi (Na2^51 CrO4, Dupont-New England Nuclear, Bedford, Mass.) at 37° C. for 1-2 hours prior to being washed three times with HBSS. 10^4 51 Cr-labeled cells were added to each target well±effector cells for 4 h, 37° C., 5% CO2 in a total volume of 200 μl.
Autologous, cultured d7 IL-4+GM-CSF PB-DC were pulsed with the indicated peptides for 2h at room temperature prior to washing and use as stimulators for CTL induction in vitro. […] 12 HLA-A2+ normal donors and 10 HLA-A2+ patients with metastatic melanoma were screened.
In parallel experiments, PBMC derived from 10 patients diagnosed with AJCC stage III or IV melanoma were stimulated with autologous DC pulsed with these same series of peptides.
Assay [2] concerns Mel 624. The assay can be described thus: induction of anti-melanoma CTL from normal donor PBMC by peptide-pulsed autologous DC, lysis of Mel 624. It is filed as cell-based, human. As to conditions: for Normal PBL Response (responders/donors): lysis of Mel 624 >20% at E:T 10:1, >80% inhibited by BB7.2; for lysis of Mel 624 by induced anti-melanoma CTL: E:T 10:1, normal donors; for Peak week of CTL reactivity, Normal PBL / number of stimulations to induce anti-melanoma CTL: normal donors.
Protocol: Peripheral blood mononuclear cells ("PBMC") were obtained after density centrifugation on Ficoll-Hypaque gradients per the manufacturer's protocol (LSM, Organon-Teknika, Durham, N.C.). […] Non-adherent cells were frozen in liquid nitrogen in 90% fetal bovine serum/10% DMSO and were retained as T cell enriched responder populations. Plastic adherent cells were cultured for 5-7 days in AIM-V medium supplemented with 1000 U rIL-4/ml+1000 U rGM-CSF/ml at 37° C., 5% CO2 and served as the source of autologous dendritic cells. No medium was added or removed during this culture period. […] Gradient interface cells were harvested, washed with HBSS, and used in phenotypic and functional assays, as outlined below. Cells generated in this way were determined to be greater than 90% DC based on morphology and the expression of a CD1a+, CD1b+, CD1c+, CD3-, CD14-, CD16-, CD20-, CD40+, CD80+, CD83+, CD86+, MHC class II+phenotype assessed by flow cytometry.
as §1, §2
PBMC responder T cells derived from normal donors (n=12) were repetitively stimulated weekly for 1-4 weeks with irradiated, autologous cultured dendritic cells pre-pulsed with either no peptide or individually pulsed with the previously identified, HLA-A2-presented melanoma peptides listed in Table 9, below.
Autologous, cultured d7 IL-4+GM-CSF PB-DC were pulsed with the indicated peptides for 2h at room temperature prior to washing and use as stimulators for CTL induction in vitro. […] 12 HLA-A2+ normal donors and 10 HLA-A2+ patients with metastatic melanoma were screened. […] Peak week of CTL reactivity is noted in parentheses.

Assay [3] has as its system GL1 CTL. It counts as cell-based, human.
Assay [4] concerns the target T1, HLA-A2 (Homo sapiens, UniProt P04439).
T1 construct: peptide stabilization read with MA2.1 by flow cytometry
As to conditions: reported by Cox et al.; cited from earlier work.

The target of assay [5] is T1, HLA-A2. Description: HLA-A2 stabilization assay on T2 cells. It is filed as binding. As to conditions: MA2.1.
In assay [6] the test system is T2 target cells. Description: CTL lysis of p939-pulsed T2 target cells. It counts as cell-based, human. Conditions: without exogenous β2 -m and MA2.1.
Protocol: (§3) Peptide loading was facilitated by the presence of the β2 -m and MA2.1 reagents as described by Zeh, H. J., et al., Hum. […] The cells were then incubated for 2 hours at room temperature.
Assay [7] relates to A42-clone. As to conditions: read-out: half-maximal sensitization for lysis, T2, E:T 10:1.
Protocol: as §3
For assay [8], the system named is TIL 1235. Conditions: TIL 1235, data not shown.
In assay [9] the test system is CTL clone A42. Conditions: CTL clone A42, data not shown.
Assay [10] has as its system TIL 5403. As to conditions: TIL 5403, data not shown.
In assay [11] the test system is MCA205 fibrosarcoma. Description: in vivo therapy of established MCA205 tumors in C57BL/6 mice. Also noted: species or system mouse. Conditions: day 4 (but not day 8) tumor models.
Protocol: Before being used in vaccines, DC were pulsed overnight with crude, unfractionated, acid-eluted peptides derived from relevant tumors or control syngeneic spleens. Peptide-pulsed DC were extensively washed and then irradiated (3,000 rads) before i.v. injection in the tail vein of tumor-bearing animals. In the fibrocarcinoma MCA205 and mammary adenocarcinoma TS/A tumor models, animals were injected three to four times, starting at day 4 or day 8 after tumor establishment and subsequently, every 4 days, with 3-5×10^5 DC pulsed with peptides. Alternatively, in the C3 tumor model, animals were injected on days 14, 21, and 28 after initial intradermal (i.d.) tumor inoculation.
1 million BM-DC were pulsed with peptides derived from 10^8 to 10^9 cells (tumor or spleen) in a total volume of 1-2 ml of DC media overnight at 37° C., 55 CO2. Splenocytes freshly harvested from B6 animals were used as a cellular source of irrelevant peptides.
Twice the minimal tumorigenic dose of tumor cells (2×10^5 MCA205, 10^5 TS/A, or 2×10^6 C3) were injected intradermally ("i.d.") in the right flank of mice. […] The mean tumor size was monitored biweekly. […]
50 μg of CTLA4-IgG1 was admixed with DC-MCA205 or DC-TS/A in vitro, and the mixture was then administered in the tail vein of tumor-bearing animals (three to four injections every 4 days). […] Depletion of CD4^+ and CD8^+ T cells was monitored by flow cytometry. […]

Entries after “also recorded” stand apart in the source; their conditions may differ. Ends that are not written are not given here.

T1 sequence (P04439 25-365): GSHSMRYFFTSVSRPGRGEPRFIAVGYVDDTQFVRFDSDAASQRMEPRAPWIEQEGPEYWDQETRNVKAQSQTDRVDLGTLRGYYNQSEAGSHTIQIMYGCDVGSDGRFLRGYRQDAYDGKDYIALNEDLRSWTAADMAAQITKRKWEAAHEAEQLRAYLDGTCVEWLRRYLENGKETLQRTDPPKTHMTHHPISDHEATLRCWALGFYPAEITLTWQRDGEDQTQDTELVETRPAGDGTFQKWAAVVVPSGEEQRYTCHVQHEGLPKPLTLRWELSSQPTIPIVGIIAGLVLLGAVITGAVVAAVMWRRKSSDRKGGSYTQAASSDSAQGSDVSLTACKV
T1 sequence (P61769 21-119 partner): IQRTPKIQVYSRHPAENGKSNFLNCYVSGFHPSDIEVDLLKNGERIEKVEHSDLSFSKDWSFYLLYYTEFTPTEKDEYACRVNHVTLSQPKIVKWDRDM

In the case of MLLAVLYCL [Tyrosinase 1-9], in [1], the “Patient PBL Response (responders/patients)” value is listed as 0/10. The “Normal PBL Response (responders/donors)” value in [2] was 1/12.
On to “Lys-Gly-Ile-Leu-Gly-Phe-Val-Phe--Thr-Leu-Thr-Val [Flu M1]”, for which the “GL1 lysis of peptide-pulsed HLA-A2+ targets” value in [3] is listed as “lysed”.
As to YMDGTMSQV [Tyrosinase 368-376], in [1], the “Patient PBL Response (responders/patients)” value is 6/10. Moreover, in assay [2], the “lysis of Mel 624 by induced anti-melanoma CTL” value is “greater than 20%”; the “Normal PBL Response (responders/donors)” value is on record as 7/12; the “Peak week of CTL reactivity, Normal PBL” value is listed as 3-4 wk; the “number of stimulations to induce anti-melanoma CTL” value is given as 2-3 stimulations.
In the case of LLDGTATLRL [gp100 457-466], in [1], the “Patient PBL Response (responders/patients)” value is 0/10. In assay [2], the “Normal PBL Response (responders/donors)” value is 0/12.
With “Tyr-Leu-Glu-Pro-Gly-Pro-Val-Thr-Ala [gp100 280-288]”, the “binding to HLA-A2” value in assay [4] was “intermediate-to-low affinity”. For the same molecule, the “Patient PBL Response (responders/patients)” value in [1] is listed as 8/10. Besides, in [1] (melanoma patients), the “Peak week of CTL reactivity, Patient PBL” value is recorded as 3-4 wk; the “immunodominance by kinetics and magnitude of response” value is on record as “immunodominant epitopes”. Also, in assay [5], the “HLA-A2 stabilization / binding” value is reported as “comparable”. In addition, in assay [2], the “lysis of Mel 624 by induced anti-melanoma CTL” value is on record as “greater than 20%”; the “Normal PBL Response (responders/donors)” value is 9/12; the “Peak week of CTL reactivity, Normal PBL” value is 3-4 wk; the “number of stimulations to induce anti-melanoma CTL” value is 2-3 stimulations.
With FLWGPRALV [MAGE-3], the “Patient PBL Response (responders/patients)” value in assay [1] was 1/3. The “Peak week of CTL reactivity, Patient PBL” value in assay [1] (melanoma patients) was found to be 3 wk. The “Normal PBL Response (responders/donors)” value in assay [2] is 0/4.
For the molecule “Asp-Gly-Leu-Ala-Pro-Pro-Gln-His-Leu-Ile-Arg (DGLAPPQHLIR) [p53 186-196]”, in [5], the “HLA-A2 stabilization / binding” value is listed as “stabilized HLA-A2 very poorly”.
Take ILTVILGVL [p939]: the “CTL reactivity over background” value in assay [6] is listed as 5-10%. Also, the EC50 in assay [7] was around 3 nM. Also, in [1], the “Patient PBL Response (responders/patients)” value was 9/10. In addition, in [1] (melanoma patients), the “Peak week of CTL reactivity, Patient PBL” value is reported as 3-4 wk. The “lowest dose with peptide-specific release of interferon-γ” value in assay [8] and in assay [9] was 1 pM in each case. Besides, the “HLA-A2 stabilization / binding” value in assay [5] was “less effective; also recorded: low affinity”. Moreover, the “recognition and lysis of peptide-pulsed T2 cells” value in [10] is “able to recognize and lyse T2 cells”. Also, the “Normal PBL Response (responders/donors)” value in [2] was 9/12. Also, in assay [2], the “Peak week of CTL reactivity, Normal PBL” value is 3-4 wk.

B1: recombinant murine interleukin 12 (protein, UniProt P43431 23-215; P43432 23-335, looked up)
Interleukin-12 subunit alpha: RVIPVSGPARCLSQSRNLLKTTDDMVKTAREKLKHYSCTAEDIDHEDITRDQTSTLKTCLPLELHKNESCLATRETSSTTRGSCLPPQKTSLMMTLCLGSIYEDLKMYQTEFQAINAALQNHNHQQIILDKGMLVAIDELMQSLNHNGETLRQKPPVGEADPYRVKMKLCILLHAFSTRVVTINRVMGYLSSA
Interleukin-12 subunit beta: MWELEKDVYVVEVDWTPDAPGETVNLTCDTPEEDDITWTSDQRHGVIGSGKTLTITVKEFLDAGQYTCHKGGETLSHSHLLLHKKENGIWSTEILKNFKNKTFLKCEAPNYSGRFTCSWLVQRNMDLKFNIKSSSSSPDSRAVTCGMASLSAEKVTLDQRDYEKYSVSCQEDVTCPTAEETLPIELALEARQQNKYENYSTSFFIRDIIKPDPPKNLQMKPLKNSQVEVSWEYPDSWSTPHSYFSLKFFVRIQRKKEKMKETEEGCNQKGAFLVEKTSTEVQCKGGNVCVQAQDRYYNSSCSKWACVPCRVRS
In the case of B1, in [11], the therapeutic effect alone entry is reported as “beneficial therapeutic effect”.
